The source of these data is patent US9890429B2, “Compositions, kits, and methods for the identification, assessment, prevention, and therapy of cancer” (Dana-Farber Cancer Institute, Inc., priority 2012, dated 2018).

The structures appear in SMILES notation.

In experiment [1] the test system is DLBCL cell lines. As to the kind of experiment: Proliferation of DLBCL cell lines after chemical CDK inhibition (alamarBlue assay). In kind it is cell-based, human. How it is done: The identities of the DLBCL cell lines used in this study were confirmed via STR profiling (PowerPlex®1.2 system [Promega]) and the online verification services of the cell banks JCRB and DSMZ (available on the World Wide Web at cellbank.nibio.go.jp/cellbank_e.html and dsmz.de/STRanalysis). All DLBCL cell lines were cultured at 37° C. in 5% C02. SU-DHL-6, SU-DHL-7, DB and Toledo were propagated in RPMI; OCI-Ly3, OCI-Ly18 and OCI-Ly19 were grown in IMDM. HEK293T cells for lentiviral production were cultured in DMEM. All media were supplemented with 10 mM HEPES buffer, 2 mM L-glutamine, 50 U/mL penicillin, 50 U/mL streptomycin and 10% heat-inactivated fetal calf serum (Invitrogen). To ensure that cells were in logarithmic growth phase, cells were diluted to 200,000 cells/ml 48 h prior to any experiment.
The pan-CDK inhibitor, flavopiridol (Selleck Chemicals, Houston, USA), was suspended in DMSO (10 mM stock solution) and stored at −20° C. until use. Following treatment, proliferation of DLBCL cell lines was assessed with the alamarBlue assay (Invitrogen, Carlsbad, Calif.).
On the technique in general: Alamar Blue is a resazurin reagent that responds to reducing activity.

The subject of experiment [2] is DLBCL cell lines. As to the kind of experiment: Cell cycle analysis (Hoechst 33342, flow cytometry). The class given is cell-based, human. The settings on record: 72 hr treatment. The method, then:
Cells were re-suspended in 1 ml of growth medium supplemented with 10 μg/ml Hoechst 33342 (Molecular Probes, Invitrogen) as final concentration. After 60 min at 37° C. in the dark. Analysis was performed on a FACSCAriallu cytometer (BD Biosciences) using the UV laser 350 nm with 20 mW. The cell cycle was plotted as histogram after excluding doublets.
Cell cycle analysis was performed at 72 h using Hoechst 33342 (Supplemental Methods) and a FACSCAriaIIu cytometer (BD Biosciences) with a UV laser at 350 nm with 20 mW.

The test system of experiment [3] is luciferized mCherry+ (Toledo, Ly4 or Ly1) DLBCL cells xenotransplanted in NSG mice. The experiment is described as follows: In vivo efficacy in DLBCL xenografts (bioluminescence, flow cytometry, immunohistochemistry). On the set-up: species or system mouse. The note with it: multiple DLBCL xenograft models in NSG mice, 7.5 mg/kg daily IP vs vehicle. (Flow cytometry measures light scatter and fluorescence of single cells or particles in a stream.)

In experiment [4] the test system is DLBCL cell lines. As to the kind of experiment: Apoptosis (Annexin V/7-AAD staining, subG1 peaks). In kind it is cell-based, human. The note with it: subG1 peaks and Annexin V/7-AAD staining, 72 hr treatment. The method, then: Cellular apoptosis was analyzed with an APC AnnexinV/7ADD Apoptosis Detection kit (BD Pharmingen). AnnexinV/7AAD plots and cell cycle graphics were generated using FlowJo software V7.6.1 for Windows (Tree Star).

For experiment [5], the system named is RB1 phosphorylation (pS780 and pT821). The settings on record: DLBCL cell lines; 24 hr treatment. How it is done: For SDS-PAGE, total cell lysates were obtained using NP-40 lysis buffer (Tris-HCl 50 mM pH7.4, NaCl 150 mM, NaF 5 mM, EDTA 5 mM, 1% NP-40) supplemented with 1 mM activated Na3VO4 and complete proteinase inhibitor cocktail (Roche). […] After washing, membranes were probed against the indicated antigens following the manufacturer's recommendation. […] For chemoluminescence detection, enhanced ECL (GE Healthcare, Piscataway, N.J.) was used. After stripping, membranes were re-probed for GAPDH (1:3000, Santa Cruz Biotechnology) as loading control.

`CN1CC[C@H](c2c(O)cc(O)c3c(=O)cc(-c4ccccc4Cl)oc23)[C@H](O)C1` [flavopiridol]: the “sensitivity of proliferation to lower doses” value in the experiment with DLBCL cell lines [1] (DHL7, DLBCL cell line with single copy RB1 loss, lower doses) is recorded as “less sensitive”. Moreover, the cellular proliferation entry in the experiment on DLBCL cell lines [1] (DLBCL cell lines with decreased or absent p53 activity and CNAs of cell cycle components, nanomolar doses, 1-4 days) is “decreased the cellular proliferation”. In addition, in the experiment with DLBCL cell lines [2], the “cell cycle (S phase, arrest)” value was “decreased S phase and induced cell cycle arrest”. Moreover, in experiment [3], the “lymphoma infiltration of bone marrow and spleen” value is “significantly reduced”. Moreover, in experiment [3] (bioluminescence), the tumor growth result is “significantly reduced tumor growth”. Moreover, in the experiment with DLBCL cell lines [4], the apoptosis entry is listed as “increased apoptosis”. Moreover, the “phosphorylation of RB1 at CDK4/6 and CDK2-specific sites (pS780 and pT821)” value in experiment [5] is listed as “decreased the phosphorylation of RB1”.
